# Experimental data: US11246961B2, “Engineered scaffolds for vascularized tissue repair” (The Regents of the University of California, priority 2016, dated 2022)
# “Also recorded” adds a separate entry of the source.
# Tests used:
# HECFCs = assay: on-bead whole cell binding assay, HECFCs; type: cell-based, human
# Source text: Endothelial colony forming cells (ECFCs), a subtype of EPCs also often referred to as outgrowth endothelial cells (OECs), were isolated from human umbilical cord blood as previously described (Williams et al. (2015) PloS One 10:e0123437; Ingram et al. (2004) Blood 104:2752). Human umbilical cord blood (10 U heparin/mL blood) was obtained from the UC Davis Umbilical Cord Blood Collection Program (UCBCP) and diluted 1:1 with Phosphate-buffered saline (PBS), without calcium and magnesium, pH 7.2 (Hyclone). Fifteen mL Ficoll-Paque PLUS (Amersham Biosciences) was laid at the bottom of 20 mL diluted blood and centrifuged at 2000 rpm for 30 minutes at room temperature. The hazy layer of mononuclear cells (MNCs) that seat at the interface between the Ficoll and serum was collected and dispensed into 50-mL conical tube containing 10 mL EBM-2 (Lonza) and centrifuged at 1500 rpm for 10 minutes at room temperature. The supernatant was carefully aspirated and the pellets were treated with red blood cell lysis buffer (eBioscience, Inc.) and then sorted by CD34 microbead magnetic sorting (Miltenyi Biotec GmbH) as per manufacturer's instructions. The CD34^+ cells were seeded on rat-tail collagen I (BD Biosciences Discovery) coated tissue culture plates and cultured in EGM-2 media (Lonza). After 24 h, non-adherent cells were removed and the media was changed daily to day 7 and every other day thereafter. ECFC-derived colonies appeared between day 4 and day 7 of culture with s typical endothelial cobblestone pattern. Individual colonies were isolated and expanded and allowed to grow to 80% to 90% confluency before first passage. ECFCs were used between P3 and P5 for all experiments.
# HECFCs, HCAECs, HMVECs and THP-1 monocytes were cultured in their respective growth medium as described in Example 1. For cell bead-binding assay, 6×10^5 HECFCs, HCAECs, HMVECs or THP-1 monocytes in 2 mL of their respective culture medium were added to an ultra-low attachment 35-mm petri dish (Corning Incorporated) followed by resin beads (Lam et al. (1991) Nature 354:82). […]
# HCAECs [1] = assay: on-bead whole cell binding assay, HCAECs; type: cell-based, human
# Source text: (§1) Human coronary artery endothelial cells (HCAECs) were purchased from ATCC. Human cardiac microvascular endothelial cells (HMVECs) were purchased from Lonza. THP-1 monocytes were obtained from Dr. Pamela Lein (University of California, Davis). The myeloid leukemia K562 cells that have been transfected with human integrin αvβ3 gene (αvβ3-K562 cells) were provided by Dr. Yoshikazu Takada and the K562 cells transfected with human integrin αIIbβ3 gene (αIIb3-K562 cells) were provided Dr. Jennifer Cochran (Stanford University)
# (§2) HECFCs, HCAECs, HMVECs and THP-1 monocytes were cultured in their respective growth medium as described in Example 1. For cell bead-binding assay, 6×10^5 HECFCs, HCAECs, HMVECs or THP-1 monocytes in 2 mL of their respective culture medium were added to an ultra-low attachment 35-mm petri dish (Corning Incorporated) followed by resin beads (Lam et al. (1991) Nature 354:82). The dishes were incubated in a shaking incubator at 37° C., 5% CO2 for various time points at 40 rpm. For platelet bead-binding assay, the platelets isolated as described in Example 1 were added to an ultra-low attachment 35-mm petri dish and incubated with the resin beads in the shaking incubator as described for the cell-bead binding assy. Phase contrast images were taken at different time points using an Olympus IX81 microscope.
# Three integrin-targeting ligands—LXY30 (α3β1), LLP2A (α4β1) and LXW7 (αvβ3)—were tested for their binding activities to EPCs and ECs. […] LXY30 only bound to ECs, not to EPCs. LLP2A only bound to EPCs, not to ECs. LXW7 bound well to both EPCs and ECs.
# THP-1 monocytes [2] = assay: on-bead whole cell binding assay, THP-1 monocytes; type: cell-based; details: 10 minutes, 30 minutes or 2 hours
# Source text: as §1
# as §2, with “microscope. […]” for “microscope.”
# THP-1 monocytes [3] = assay: flow cytometry ligand-cell binding, THP-1 monocytes; details: biotinylated ligand 1 μM
# Method: FIG. 10 presents flow cytometry data from an assay of binding affinity of LXW7 and GRGD (SEQ ID NO: 1) to different cell types. Tests included EPCs/ECs from different sources, including HECFCs (A), HCAECs (B), HMVECs (C), and THP-1 monocytes (D), Platelets (E), as well as K562 cells engineered to highly express αvβ3 (αvβ3-K562, F), and αIIbβ3 (αIIbβ3-K562, G). Cells were incubated with the LXW7-bio, GRGD-bio (SEQ ID NO: 1), or D-Biotin peptide and subsequently incubated with streptavidin-phycoerythrin. Flow cytometry analysis was performed to determine the binding affinity of the ligands. Samples treated with D-biotin were used as negative controls.
# LXW7-bio (1 μM) was incubated with 3×10^5 HECFCs, HCAECs, HMVECs, αvβ3-K562 and αIIbβ3-K562 cells and THP-1 monocytes and 1×10^8 platelets in binding buffer (HEPES containing 10% FBS) on ice for 30 minutes. The samples were washed three times with DPBS containing 1% FBS and incubated with 2 μg/ml of streptavidin-phycoerythrin on ice for 30 minutes and then washed with DPBS. Samples were analyzed on a BD Fortessa LSR Cell Analyzer and further data analysis and gating were performed using FlowJo software (Treestar, Inc.).
# HCAECs [4] = assay: MTS assay of EC proliferation on LXW7; type: cell-based, human; details: vs D-biotin treated surface; up to 5 days
# Method: The 96-well plates from Example 3 were treated with 1 μM Avidin solution for 1 hour at room temperature. Avidin coated wells were rinsed three times with DPBS and treated with LXW7-bio (1 μM), with D-biotin (1 μM) serving as the control. After 1 hour, the wells were washed three times with DPBS and blocked with 1% BSA for 1 hour. 3×10^3 viable HCAECs were seeded per well and cultured in EGM-2 media for 5 days. MTS assay was performed at each day as per the manufacturer instructions (Interchim) and analyzed on SpectraMax-3 plate reader (Molecular Devices).
# VEGFR2 (Tyr1175) = assay: Western-blot analysis, phosphorylation of VEGFR2; type: cell-based, human; details: LXW7 treated surface, 96 hours, vs D-biotin
# Method: The 100-mm dishes from Example 2 were treated with Avidin followed by LXW7-bio or D-biotin as described in Example 5. 8×10^5 HCAECs were seeded per dish and cultured in EGM-2 media for 4 days. Cells were lysed using Extraction Kit (Thermo Fisher Scientific) and protein concentrations were determined using BCA Protein Assay (Thermo Fisher Scientific). Fifteen μg of each sample were loaded and separated using a 4-12% Bis-Tris NuPAGE gel (Thermo Fisher Scientific) and transferred to a nitrocellulose membrane. The membrane was blocked in 5% BSA in TBST (Tris-buffered saline with 0.5% Tween-20), and subsequently incubated with primary antibodies anti-VEGF Receptor 2, anti-Phospho-VEGF Receptor 2, anti-p44/42 MAPK (Erk1/2) and anti-Phospho-p44/42 MAPK (Erk1/2) (Thr202/Tyr204), all purchased from Cell Signaling Technologies, in 1% BSA overnight at 4° C. After washing three times with TBST, the membranes were incubated with respective horseradish peroxidase-conjugated secondary antibodies in 1% non-fat dry milk in TBST (BioRad) for 1 hour at room temperature. After washing, the protein bands were visualized using West Dura Substrate (Thermo Fisher Scientific) and quantified using Image J software.
# [5] = 10 minutes, 30 minutes or 2 hours
substance,measurement,setting,value
cGRGDdvc [LXW7],attachment of HECFCs to beads displaying LXW7,HECFCs; [5],efficiently supported attachment of EPCs/ECs from different sources; also recorded: efficiently supported EPC/EC attachment
same,binding of HECFCs to ligand-displaying resin beads,HECFCs; 2 hours incubation,bound both HECFCs and HCAECs
same,attachment of HCAECs to beads displaying LXW7,HCAECs [1]; [5],efficiently supported attachment of EPCs/ECs from different sources; also recorded: efficiently supported EPC/EC attachment
same,binding of HCAECs to ligand-displaying resin beads,HCAECs [1]; 2 hours incubation,bound both HECFCs and HCAECs
same,attachment of THP-1 monocytes to beads displaying LXW7,THP-1 monocytes [2],did not support effective attachment of THP-1 monocytes
same,binding to THP-1 monocytes by flow cytometry,THP-1 monocytes [3],did not bind to THP-1 monocytes
same,EC proliferation on LXW7 treated surface (MTS),HCAECs [4],significantly promoted EC proliferation after 48 hours in culture
same,phosphorylation of VEGFR2 (Tyr1175) in ECs,VEGFR2 (Tyr1175),significantly increased
